Assays:
[1] = excess molar enthalpy (molar enthalpy of mixing); xn = mol fraction of the nth substance listed; details: 298.15 K, 101 kPa, Liquid
[2] = xn = mol fraction of the nth substance listed; details: 298.15 K, 101 kPa, Liquid, Vibrating tube method

BrCCBr [1,2-dibromoethane] + CCOC(C)=O
Details	excess molar enthalpy [kcal/mol]	mass density [kg/m3]
[1], x2 = 0.0529	0.00619	–
[1], x2 = 0.1142	0.00951	–
[1], x2 = 0.1754	0.0111	–
[1], x2 = 0.2376	0.0103	–
[1], x2 = 0.2976	0.00906	–
[1], x2 = 0.3548	0.00643	–
[1], x2 = 0.4086	0.0028	–
[1], x2 = 0.4579	-0.00112	–
[1], x2 = 0.5045	-0.00509	–
[1], x2 = 0.536	-0.00822	–
[1], x2 = 0.5453	-0.00877	–
[1], x2 = 0.5935	-0.0133	–
[1], x2 = 0.6556	-0.0167	–
[1], x2 = 0.7113	-0.0176	–
[1], x2 = 0.7914	-0.0161	–
[1], x2 = 0.8635	-0.0119	–
[1], x2 = 0.9367	-0.00602	–
[2], x2 = 0.0526	–	2091.79
[2], x2 = 0.1032	–	2019.48
[2], x2 = 0.1562	–	1945.11
[2], x2 = 0.2107	–	1869.55
[2], x2 = 0.2686	–	1790.65
[2], x2 = 0.4371	–	1568.65
[2], x2 = 0.4987	–	1490.07
[2], x2 = 0.6182	–	1341.18
[2], x2 = 0.6799	–	1266.02
[2], x2 = 0.7399	–	1194.16
[2], x2 = 0.8065	–	1115.57
[2], x2 = 0.8705	–	1041.22
[2], x2 = 0.9341	–	968.46

BrCCCCCBr [1,5-dibromopentane] + CCOC(C)=O
Details	excess molar enthalpy [kcal/mol]	mass density [kg/m3]
[1], x2 = 0.0775	0.0259	–
[1], x2 = 0.1619	0.0431	–
[1], x2 = 0.2431	0.0561	–
[1], x2 = 0.3197	0.0639	–
[1], x2 = 0.3909	0.0676	–
[1], x2 = 0.4536	0.0674	–
[1], x2 = 0.5079	0.0658	–
[1], x2 = 0.5103	0.0652	–
[1], x2 = 0.5486	0.0622	–
[1], x2 = 0.5612	0.062	–
[1], x2 = 0.5934	0.0591	–
[1], x2 = 0.6025	0.0577	–
[1], x2 = 0.6413	0.053	–
[1], x2 = 0.6919	0.0458	–
[1], x2 = 0.7451	0.0375	–
[1], x2 = 0.7998	0.0284	–
[1], x2 = 0.8546	0.0198	–
[1], x2 = 0.9082	0.012	–
[1], x2 = 0.9563	0.00528	–
[2], x2 = 0.0866	–	1642.62
[2], x2 = 0.1624	–	1595.36
[2], x2 = 0.2251	–	1554.67
[2], x2 = 0.2991	–	1504.62
[2], x2 = 0.3623	–	1460.11
[2], x2 = 0.4225	–	1416.21
[2], x2 = 0.5458	–	1321
[2], x2 = 0.6601	–	1225.85
[2], x2 = 0.765	–	1131.91
[2], x2 = 0.8611	–	1039.57
[2], x2 = 0.9561	–	941.92

BrCCCCCBr [1,5-dibromopentane] + CCOC(=O)CC
Details	excess molar enthalpy [kcal/mol]	mass density [kg/m3]
[1], x2 = 0.0603	0.00839	–
[1], x2 = 0.1247	0.0137	–
[1], x2 = 0.193	0.0172	–
[1], x2 = 0.261	0.0185	–
[1], x2 = 0.3249	0.0179	–
[1], x2 = 0.3861	0.0152	–
[1], x2 = 0.4412	0.0111	–
[1], x2 = 0.4896	0.007	–
[1], x2 = 0.5244	0.00378	–
[1], x2 = 0.5365	0.00325	–
[1], x2 = 0.5747	-0.000717	–
[1], x2 = 0.5773	-0.00105	–
[1], x2 = 0.6302	-0.00359	–
[1], x2 = 0.6884	-0.00526	–
[1], x2 = 0.752	-0.00629	–
[1], x2 = 0.8187	-0.00576	–
[1], x2 = 0.8848	-0.00461	–
[1], x2 = 0.9461	-0.00289	–
[2], x2 = 0.1344	–	1600.12
[2], x2 = 0.2009	–	1552.01
[2], x2 = 0.263	–	1506.12
[2], x2 = 0.3276	–	1457.5
[2], x2 = 0.3859	–	1412.68
[2], x2 = 0.4471	–	1364.74
[2], x2 = 0.5096	–	1314.84
[2], x2 = 0.6206	–	1223.48
[2], x2 = 0.6836	–	1170.2
[2], x2 = 0.7919	–	1075.76
[2], x2 = 0.8414	–	1031.42
[2], x2 = 0.8957	–	981.96

CCCCC(=O)OCC [ethyl pentanoate] + BrCCBr
Details	excess molar enthalpy [kcal/mol]	mass density [kg/m3]
[1], x1 = 0.0286	0.00476	–
[1], x1 = 0.0632	0.0075	–
[1], x1 = 0.103	0.00966	–
[1], x1 = 0.1465	0.0103	–
[1], x1 = 0.1918	0.0102	–
[1], x1 = 0.2375	0.00848	–
[1], x1 = 0.2837	0.00418	–
[1], x1 = 0.3283	-0.00098	–
[1], x1 = 0.3711	-0.00485	–
[1], x1 = 0.4026	-0.00825	–
[1], x1 = 0.4465	-0.0112	–
[1], x1 = 0.4938	-0.0142	–
[1], x1 = 0.5538	-0.0165	–
[1], x1 = 0.6297	-0.0178	–
[1], x1 = 0.7132	-0.0175	–
[1], x1 = 0.8085	-0.0143	–
[1], x1 = 0.9099	-0.00844	–
[2], x1 = 0.0379	–	2085.1
[2], x1 = 0.0766	–	2004.73
[2], x1 = 0.1567	–	1851.43
[2], x1 = 0.1993	–	1776.2
[2], x1 = 0.2427	–	1703.76
[2], x1 = 0.2945	–	1622.25
[2], x1 = 0.3695	–	1512.8
[2], x1 = 0.5222	–	1317.39
[2], x1 = 0.6601	–	1166.3
[2], x1 = 0.7313	–	1096.12
[2], x1 = 0.8119	–	1022.28
[2], x1 = 0.9074	–	941.5

BrCCCCCCBr [1,6-dibromohexane] + CCOC(C)=O
Details	excess molar enthalpy [kcal/mol]	mass density [kg/m3]
[1], x2 = 0.0852	0.0323	–
[1], x2 = 0.179	0.0516	–
[1], x2 = 0.2657	0.0644	–
[1], x2 = 0.3506	0.0739	–
[1], x2 = 0.4238	0.0791	–
[1], x2 = 0.489	0.0806	–
[1], x2 = 0.5186	0.0798	–
[1], x2 = 0.5344	0.0792	–
[1], x2 = 0.5598	0.078	–
[1], x2 = 0.6031	0.0735	–
[1], x2 = 0.6495	0.0677	–
[1], x2 = 0.7011	0.0608	–
[1], x2 = 0.7507	0.0522	–
[1], x2 = 0.8025	0.0431	–
[1], x2 = 0.8542	0.033	–
[1], x2 = 0.9062	0.0221	–
[1], x2 = 0.9578	0.0106	–
[2], x2 = 0.1101	–	1558.02
[2], x2 = 0.2056	–	1515.22
[2], x2 = 0.2841	–	1476.78
[2], x2 = 0.3679	–	1432.01
[2], x2 = 0.4348	–	1393.28
[2], x2 = 0.5035	–	1350.27
[2], x2 = 0.623	–	1266.72
[2], x2 = 0.733	–	1177.88
[2], x2 = 0.8165	–	1101.03
[2], x2 = 0.8582	–	1059.17
[2], x2 = 0.8988	–	1015.65
[2], x2 = 0.9703	–	932.2

BrCCCBr [1,3-dibromopropane] + CCOC(C)=O
Details	excess molar enthalpy [kcal/mol]	mass density [kg/m3]
[1], x2 = 0.0601	0.0131	–
[1], x2 = 0.127	0.0223	–
[1], x2 = 0.195	0.0295	–
[1], x2 = 0.2607	0.0333	–
[1], x2 = 0.3258	0.0342	–
[1], x2 = 0.3855	0.0332	–
[1], x2 = 0.4407	0.0304	–
[1], x2 = 0.4829	0.0271	–
[1], x2 = 0.487	0.0269	–
[1], x2 = 0.5298	0.0219	–
[1], x2 = 0.5741	0.0169	–
[1], x2 = 0.628	0.0109	–
[1], x2 = 0.687	0.00531	–
[1], x2 = 0.7498	0.000765	–
[1], x2 = 0.8153	-0.00174	–
[1], x2 = 0.8813	-0.00241	–
[1], x2 = 0.9434	-0.00136	–
[2], x2 = 0.057	–	1910.48
[2], x2 = 0.1189	–	1845.49
[2], x2 = 0.1785	–	1782.59
[2], x2 = 0.2647	–	1691.31
[2], x2 = 0.3199	–	1632.54
[2], x2 = 0.4187	–	1526.9
[2], x2 = 0.466	–	1476.19
[2], x2 = 0.5091	–	1429.89
[2], x2 = 0.6323	–	1296.79
[2], x2 = 0.6746	–	1250.93
[2], x2 = 0.7715	–	1145.6
[2], x2 = 0.8309	–	1080.67
[2], x2 = 0.8892	–	1016.69
[2], x2 = 0.9615	–	937.08

— the NIST ThermoML archive (doi:10.1016/j.jct.2005.07.009)
